Series [1] in a line: Quenching of tryptophan/tyrosines by acrylamide (Stern-Volmer). As to conditions: peptide 1 µM; for Ksv (M^−1) in buffer: absence of liposomes, F0/F = 1+Ksv [Q]; for Ksv (M^−1) in LUVs: presence of liposomes, peptide/lipid molar ratio 1/200. Type of series: physicochemical. An excerpt: The observed changes in the characteristics of the tryptophan/tyrosine emission upon binding of peptides HB168–186 and HB254–270 to lipid vesicles indicate their insertion into the hydrophobic region of the bilayers. We also studied the accessibility of the tryptophan/tyrosine residues of membrane-bound peptides towards acrylamide, a neutral, water-soluble, highly efficient quenching molecule, which is unable to penetrate into the hydrophobic core of the lipid bilayer. The more deeply a tryptophan/tyrosine residue is buried, the less strongly it can be quenched by acrylamide. Stern-Volmer plots for the quenching of tryptophan by acrylamide, recorded in the absence and presence of lipid vesicles, are depicted in Figure 6. Fluorescence of tryptophan/tyrosine decreased in a concentration-dependent manner by the addition of acrylamide to the peptide solution both in the absence and presence of liposomes, without other effects on the spectra. However, we can observe a substantial difference between the two peptides.
Aliquots of a 4 M solution of the water-soluble quencher were added to the solution containing the peptide (1 µM) in the absence or presence of liposomes at a peptide/lipid molar ratio of 1/200. The maximal concentration of acrylamide is 0.2 mmol/ml. Tryptophan fluorescence was measured with an excitation wavelength of 295 nm, to reduce acrylamide absorbance (and the resulting inner filter effect), and emission at a wavelength of 340 nm, to eliminate interference from the Raman band of water and tyrosine fluorescence was measured with an excitation wavelength of 274 nm, and emission at a wavelength of 305. The data were analyzed according to the Stern-Volmer equation [68], F0/F = 1+Ksv [Q], where F0 and F represent the fluorescence intensities in the absence and the presence of the quencher (Q), respectively, and Ksv is the Stern-Volmer quenching constant, which is a measure of the accessibility of tryptophan to acrylamide. […] Accordingly, Ksv is determined by the amount of non-vesicle-associated free peptide as well as the fraction of the peptide residing at the surface of the bilayer.

Series [2] is described as follows: Thioflavin T assay for peptide aggregation. As to conditions: for Aggregation state in the presence of DOPC/Chol LUVs (ThT fluorescence) / Aggregation state in aqueous medium (ThT fluorescence): peptide 4 µM, 100 mM NaCl, 10 mM Tris–HCl, 25 µM ThT, pH 7.4, 37°C; for Aggregation state in the presence of DOPC/Chol LUVs (ThT fluorescence): 0.1 mM phospholipid; for Aggregation state in aqueous medium (ThT fluorescence): ex 450 nm / em 482 nm; for Oligomerization in aqueous solution / Oligomerization inside / interacting with the membrane: summary in discussion. The series is classed as physicochemical. As for the experimental part: The peptide's aggregation state in buffer and DOPC/Chol LUVs was assayed using ThT [36], in order to know the possible effects of the peptide aggregation on the membranes. As observed in Figure 4 A–B, the two peptides present a completely different behaviour.
Peptide aggregation was assayed using Thioflavin T (ThT). ThT associates rapidly with aggregated peptides giving rise to a new excitation maximum at 450 nm and an enhanced emission at 482 nm. LUVs in 100 mM NaCl, 10 mM Tris–HCl, 25 µM ThT, pH 7.4 (final phospholipid concentration of 0.1 mM) were titrated with a peptide concentration of 1, 4, 8, 12, 16, 20 µM. Fluorescence was measured before and after the desired amount of peptide was added into the cuvette using a Varian Cary Eclipse fluorescence spectrometer at 37°C. Samples were excited at 450 nm (slit width, 5 nm) and fluorescence emission was recorded at 482 nm (slit width, 5 nm). Aggregation was quantified according to the equation, %A = (Ff−F0)/(Fmax−F0)×100, where Ff is the value of fluorescence after peptide addition, F0 the initial fluorescence in the absence of peptide and Fmax is the fluorescence maximum obtained immediately after peptide addition. Kinetic data were obtained at a concentration of 4 µM.

A short description of series [3]: Lipid mixing assay (NBD-PE/Rho-PE resonance energy transfer). The following applies: 0.1 mM lipid, 37°C. The protocol: To investigate the fusogenicity of gB peptides, NBD and Rho labelled PE were used as the donor and acceptor of fluorescence energy transfer. A population of LUVs labelled with both was mixed with a population of unlabelled LUVs and increasing amounts of peptides were added. […] The dependence of the extent of lipid mixing on the peptide to lipid molar ratio was analysed. The fusogenic capacity was monitored by measuring their ability to induce lipid mixing of model membranes composed of DOPG, DOPG/Chol (3/2), DOPC, DOPC/Chol (3/2), POPC/Chol (3/2), and POPC/Chol/SM at various ratios (4/1/1, 2/1/1, 1/1/1).
Figure 2 Ability of peptides to induce lipid mixing. Peptide-promoted membrane fusion as determined by lipid mixing; peptide aliquots were added to 0.1 mM LUVs, containing 0.6% NBD and 0.6% Rho. The increase in fluorescence was measured after the addition of peptide aliquots; reduced Triton-X-100 (0.05% v/v) was referred to as 100% of fusion. In figure is reported the dose dependence of lipid mixing at 37°C: panels A and B HB168–186 and HB254–270 in LUVs of different composition; panels C and D HB168–186 and HB254–270 in LUVs mimicking lipid rafts; panel E HB168–186, HB254–270 and shorter versions in DOPC/Chol LUVs; panel F equimolecular mixtures of peptides HB168–186 and HB254–270 in DOPC/Chol (3/2) and POPC/Chol/SM (2/1/1).
Membrane lipid mixing was monitored using the resonance energy transfer assay (RET) reported by Struck et al.. The assay is based on the dilution of the NBD-PE (donor) and Rho-PE (acceptor). Dilution due to membrane mixing results in an increase in NBD-PE fluorescence. The change in donor emission was monitored as aliquots of peptides were added to vesicles. […] The fluorescence scale was calibrated such that the zero level corresponded to the initial residual fluorescence of the labelled vesicles and the 100% value corresponding to complete mixing of all lipids in the system was set by the fluorescence intensity of vesicles upon the addition of Triton X-100 (0.05% v/v) at the same total lipid concentrations of the fusion assay. […]

Series [4] deals with the molecule itself. The experiment in a line: thioflavin T fluorescence (peptide aggregation).

Residues, ends and D or L forms follow the SMILES beside them.

For `CC[C@H](C)[C@H](NC(=O)CNC(=O)[C@H](CCSC)NC(=O)[C@H](Cc1ccccc1)NC(=O)[C@H](CCC(N)=O)NC(=O)[C@H](CO)NC(=O)[C@H](Cc1ccc(O)cc1)NC(=O)[C@H](CCCNC(=N)N)NC(=O)[C@H](Cc1c[nH]cn1)NC(=O)CNC(=O)[C@H](Cc1ccccc1)NC(=O)[C@H](Cc1c[nH]c2ccccc12)NC(=O)[C@@H](NC(=O)[C@H](CCC(N)=O)NC(=O)[C@H](CO)NC(=O)[C@@H](NC(=O)[C@@H](NC(=O)[C@@H](N)C(C)C)[C@@H](C)O)C(C)C)C(C)C)C(=O)N[C@@H](Cc1ccccc1)C(=O)O` [HB168–186] (H-VTVSQVWFGHRYSQFMGIF-OH), in series [1], the “Ksv (M^−1) in buffer” value was determined as 8.3 ± 0.2 M⁻¹ and the “Ksv (M^−1) in LUVs” value was 6.4 ± 0.4 M⁻¹. Moreover, the “Aggregation as a function of peptide concentration (ThT fluorescence)” value in series [2] (buffer and DOPC/Chol LUVs, high concentrations (titration 1, 4, 8, 12, 16, 20 µM), 37°C) is “aggregated both in the aqueous medium and in LUVs”. Further, in series [2], the “Aggregation state in the presence of DOPC/Chol LUVs (ThT fluorescence)” value is given as “lower aggregation”, the “Aggregation state in aqueous medium (ThT fluorescence)” value is reported as “already aggregated”, the “Oligomerization in aqueous solution” value is reported as “high tendency to oligomerize” and the “Oligomerization inside / interacting with the membrane” value was “high tendency to oligomerize”. Besides, in series [3] (LUVs of DOPG, DOPG/Chol, DOPC, DOPC/Chol, POPC/Chol, Triton X-100 = 100%, at least three repeats averaged), the “Fusogenic ability (lipid mixing)” value is given as “higher fusogenic ability”.

`CC(C)[C@H](NC(=O)[C@@H](N)CCCNC(=N)N)C(=O)N[C@@H](CCC(=O)O)C(=O)N[C@@H](C)C(=O)N[C@@H](Cc1ccccc1)C(=O)N[C@@H](Cc1c[nH]cn1)C(=O)N[C@@H](CCCNC(=N)N)C(=O)N[C@@H](Cc1ccc(O)cc1)C(=O)O` [HB258–265] (H-RVEAFHRY-OH): the “Level of fusion (lipid mixing) in DOPC/Chol LUVs” value in series [3] is given as “lower levels of fusion compared to longer sequences”.

Turning to `CC(C)[C@H](NC(=O)[C@H](CCCNC(=N)N)NC(=O)[C@H](CO)NC(=O)[C@@H]1CCCN1C(=O)[C@H](CC(N)=O)NC(=O)[C@@H](N)Cc1ccc(O)cc1)C(=O)N[C@@H](CCC(=O)O)C(=O)N[C@@H](C)C(=O)N[C@@H](Cc1ccccc1)C(=O)N[C@@H](Cc1c[nH]cn1)C(=O)N[C@@H](CCCNC(=N)N)C(=O)N[C@@H](Cc1ccc(O)cc1)C(=O)NCC(=O)N[C@H](C(=O)N[C@H](C(=O)N[C@H](C(=O)N[C@@H](CC(N)=O)C(=O)O)C(C)C)[C@@H](C)O)[C@@H](C)O` [HB254–270] (H-YNPSRVEAFHRYGTTVN-OH), in series [1], the “Ksv (M^−1) in buffer” value was determined as 71.1 ± 1.1 M⁻¹ and the “Ksv (M^−1) in LUVs” value was 8.5 ± 0.1 M⁻¹. For the same molecule, in series [2], the “Aggregation state in the presence of DOPC/Chol LUVs (ThT fluorescence)” value was “not aggregated”, the “Aggregation state in aqueous medium (ThT fluorescence)” value was “not aggregated”, the “Oligomerization in aqueous solution” value is given as “not oligomerized” and the “Oligomerization inside / interacting with the membrane” value was “able to oligomerize”.

For the molecule `CC(C)[C@H](N)C(=O)N[C@@H](Cc1c[nH]c2ccccc12)C(=O)N[C@@H](Cc1ccccc1)C(=O)NCC(=O)N[C@@H](Cc1c[nH]cn1)C(=O)N[C@@H](CCCNC(=N)N)C(=O)N[C@@H](Cc1ccc(O)cc1)C(=O)O` [HB173–179] (H-VWFGHRY-OH), in series [3], the “Level of fusion (lipid mixing) in DOPC/Chol LUVs” value is recorded as “lower levels of fusion compared to longer sequences”.

B1: HB168–186 (peptide)
peptide: VTVSQVWFGHRYSQFMGIF
notes: source: synthetic peptide (solid-phase Fmoc method), purified (purity higher than 98%)
On to B1, for which the binding result in series [4] is reported as “binds”.
